Source: US10421774B2 (priority 2016, dated 2019)

Experiments:
[1] = system: T332S/prR41G site directed mutant virus; experiment: Anti-viral sensitivity of site directed mutants, T332S/prR41G; assay type: cell-based, HIV-1; details: genotype T332S/prR41G, sensitivity relative to wt virus
Excerpt: (§1) Viruses. NLRepRluc virus contains the Renilla luciferase marker in place of the viral nef gene. The proviral plasmid pNLRepRluc was constructed at Bristol-Myers Squibb, starting from a proviral NL4-3 clone (B subtype) that was obtained from the NIH AIDS Research and Reference Reagent Program. The parental recombinant wild type (WT) virus (NLRepRlucP373S) was derived from NLRepRluc and contains the additional substitution of P373 for serine in Gag (within the SP1 spacer), the most common 373 variation in subtype B. Other recombinant viruses (A364V, V370A/ΔT371 and the “T3325 triple” (T332S/V362I+HIV-1 protease R41G)) were generated by site-directed mutagenesis of plasmid pNLRepRlucP373S to introduce those amino acid substitutions in Gag and protease. […] Titers of virus stocks were determined using a luciferase assay (Dual-Luciferase® Reporter Assay System, Promega, Milwaukee, Wis., USA) endpoint.
(§2) Multiple cycle drug susceptibility assay. […] After 4-5 day incubation at 37° C./CO2, virus yields were determined by Renilla luciferase activity (Dual-Luciferase® Reporter Assay System, Promega). The endpoint luminescence was detected on a Wallac Trilux (PerkinElmer).
(§3) Starting from wt virus, the HIV protease R41G substitution was detected in one of three in vitro selections for resistance to the MI compound above along with Gag V362I and Gag T332S. […]

[2] = system: T332S/V362I/Pr R41G virus; experiment: microbe, parasite or virus in culture; assay type: cell-based, HIV-1; details: genotype T332S/V362I/Pr41G, sensitivity relative to wt virus
In short: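 Renilla luciferase NL4-3 reporter virus (Gag P373S background) carrying Gag T332S/V362I plus protease R41G, inoculum normalized by luciferase signal, infected MT-2 cells (10,000/well). Compounds 3-fold diluted, 1% DMSO final. After 4–5 days at 37 °C, virus yield measured as Renilla luciferase activity in a multiple-cycle assay.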

[3] = system: V362I/prR41G site directed mutant virus; experiment: Anti-viral sensitivity of site directed mutants, V362I/prR41G; assay type: cell-based, HIV-1; details: genotype V362I/prR41G, sensitivity relative to wt virus
Excerpt: as §1, §2, §3

[4] = system: V362I site directed mutant virus; experiment: Anti-viral sensitivity of site directed mutants, V362I; assay type: cell-based, HIV-1; details: genotype V362I, sensitivity relative to wt virus
Excerpt: as §1, §2, §3

[5] = system: T332S/V362I site directed mutant virus; experiment: Anti-viral sensitivity of site directed mutants, T332S/V362I; assay type: cell-based, HIV-1; details: genotype T332S/V362I, sensitivity relative to wt virus
Excerpt: as §1, §2, §3

[6] = system: HIV protease R41G site directed mutant virus; experiment: Anti-viral sensitivity of site directed mutants, HIV protease R41G; assay type: cell-based, HIV-1; details: genotype HIV protease R41G, sensitivity relative to wt virus
Excerpt: as §1, §2, §3

[7] = system: T332S site directed mutant virus; experiment: Anti-viral sensitivity of site directed mutants, T332S; assay type: cell-based, HIV-1; details: genotype T332S, sensitivity relative to wt virus
Excerpt: as §1, §2, §3

[8] = system: viruses that contain T332S and HIV protease R41G combinations, with and without V362I; experiment: Anti-viral sensitivity of site directed mutants, single and double combinations summarised in text; assay type: cell-based, HIV-1; details: viruses with only a single change
Excerpt: Starting from wt virus, the HIV protease R41G substitution was detected in one of three in vitro selections for resistance to the MI compound above along with Gag V362I and Gag T332S. R41G is not a primary PI resistance substitution^i and is not present in the LANL database (2010). There is a single report of R41G associated with in vitro selection for resistance to an investigational PI^ii. […] A related change, R41K, is a common subtype B polymorph (27% of LANL database), and R41K may be involved in the emergence of protease resistance to an investigational protease inhibitor.^iii R41 is located in a loop proximal to the HIV-1 protease substrate binding site, and this change might act allosterically to facilitate closing the protease active site pocket over the substrate, thereby allowing catalysis. It might be that R41G alters the dynamics of the loop motion and the final positioning of the loop, which could cause the active site to better recognize the primary MI compound (above)-selected changes (V362I/T332S). An analysis of the V362I/T332S/Pr R41G substitutions, and their effects on MI compound susceptibility and viral growth, are described in the Table 1 below:
Viruses were constructed that contain T332S and HIV protease R41G combinations, with and without V362I.). […]

HIV-1 strain NL4-4 virus = experiment: Selection for resistance to the MI compound, EC50 for the starting virus; assay type: cell-based; details: Human immunodeficiency virus 1, read-out: EC50 for this virus
Excerpt: T332sN362I/Pr R41G (N14.3, B Clade) virus′ was obtained as follows: Selection for resistance of HIV-1 strain […] virus with the HIV maturation inhibitor (MI) compound
At passage 8 virus was harvested and sequenced.

SMILES | Fold wt [1] | Fold wt [2] | Fold wt [3] | Fold wt [4] | Fold wt [5] | Fold wt [6] | Fold wt [7] | fold less sensitive [8] | EC50 (HIV-1 strain NL4-4 virus)
C=C(C)[C@@H]1CC[C@]2(C(=O)O)CC[C@]3(C)[C@H](CC[C@@H]4[C@@]5(C)CC[C@H](OC(=O)CC(C)(C)C(=O)O)C(C)(C)[C@@H]5CC[C@]43C)[C@@H]12 [BVM, 3β-(3-carboxy-3-methyl-butanoyloxy) lup-20(29)-en-28-oic acid] | 4.2 | 10 | 3.9 | 0.6 | 3.1 | 1.9 | 23 |  | 
C=C(C)[C@@H]1CC[C@]2(NCCN3CCS(=O)(=O)CC3)CC[C@]3(C)[C@H](CC[C@@H]4[C@@]5(C)CC=C(c6ccc(C(=O)O)cc6)C(C)(C)[C@@H]5CC[C@]43C)[C@@H]12 [MI compound] | 6.1 | 217 | 9.3 | 2.2 | 5.7 | 1.5 | 1.9 | 2 fold | 2 nM
